According to US20220079910A1, “Cancer Treatment Useing Docetaxel by Controlling Peak Plasma Levels” (Modra Pharmaceuticals B.V., priority 2018, published 2022):
Like-named read-outs stand apart in the source and are kept apart here.

Tests used:
[1] = IV docetaxel q3w AUC in mCRPC patients vs other tumors (De Vries Schultink et al.); settings: human, in vivo, weekly equivalent, read-out: weekly AUC of IV docetaxel in mCRPC patients (q3w AUC divided by 3)
Procedure: The target minimum AUC threshold in mCRPC patients is highlighted and ranges from about 600-800 h*ng/mL.

[2] = system: cancer patients; assay: Phase I trial N10BOM: treatment duration, SAEs/DLTs, best response; assay type: in vivo, human; settings: n=64
Procedure: (§1) We treated in a phase I trial (N10BOM) cancer patients (n=64) with oral docetaxel in combination with ritonavir. The dose was administered bi-daily once per week continuously.
Treatment duration of 8 patients was from 19 up to 55 weeks. These were patients with the following cancers. Head and neck cancer (n=2; PR), non-small cell lung (n=4; SD), colorectal (n=1; SD) and giant cell neuroendocrine carcinoma (n=1; SD). The docetaxel exposure in these patients was:
(§2) The docetaxel exposure in these patients was:
Twentyfive patients had SD or PR as best treatment response.

[3] = Weekly intravenous docetaxel infusion: AUC and CMAX (Baker et al.); assay type: in vivo, human; settings: IV 35 mg/m2 in 0.5 h vs oral in patients with solid tumors (not prostate)
[4] = system: metastasized castration-resistant prostate cancer (mCRPC); assay: Phase IB/IIA study in mCRPC (M17DOC): PSA response, radiological response, treatment cycles; assay type: in vivo, human; settings: FIG. 3 / FIG. 6; target range 500-1500 h*ng/mL (FIG. 6)
From the text: In FIG. 8 a plot is shown of the number of treatment cycles (with a maximum of 30) in a multicenter clinical phase IB study in mCRPC (M17DOC) of evaluable patients. Patients were scored, as PSA progression (black bars); PSA equal to baseline or decline (<50%) (dark grey bars); PSA response (decline ≥50%) (medium grey bars); clinical response (pain reduction) up to the maximum treatment period permitted in the protocol of 30 weeks (light grey bars).
(§4) A multicenter clinical phase IB/IIA study was conducted in mCRPC (M17DOC), wherein ModraDoc006, an oral docetaxel formulation was combined with ritonavir (ModraDoc006/r), in metastasized castration-resistant prostate cancer (mCRPC).
(§5) The study included patients diagnosed with metastasized castration-resistant prostate cancer (mCRPC), dosed in a bi-daily once weekly (BIDW) dosing schedule at 4 dose levels (see table below).
This study included 20 evaluable patients diagnosed with metastasized castration-resistant prostate cancer (mCRPC), dosed in a bi-daily once weekly (BIDW) dosing schedule at 4 dose levels (see table).

[5] = Phase I trial N10BOM: docetaxel plasma exposure after oral docetaxel with ritonavir; assay type: in vivo; settings: human; for AUC(0-t): read-out: docetaxel AUC0-48 h
Procedure: as §1

[6] = Phase I trial N07DOW: docetaxel plasma exposure after oral docetaxel with ritonavir; assay type: in vivo; settings: human, mean±SD; for AUC(0-t): read-out: docetaxel AUC0-48 h
Procedure: (§3) We treated in a phase I trial (N07DOW) cancer patients (n=100) with oral docetaxel in combination with ritonavir. The dose was administered on one day (single dose), once per week. Data presented as mean±standard deviation. If available, kinetic data of 2 cycles per patient were used.

[7] = weekly docetaxel 35 mg/m2 as 0.5 h intravenous infusion; cited from earlier work
[8] = cited from earlier work
[9] = in vivo
Procedure: The described method was successfully applied in clinical studies with oral administration of docetaxel in combination with ritonavir.
Our next step was to investigate this oral treatment schedule in patients with metastatic Castration Resistant Prostate Cancer (mCRPC) in a phase IB/.IIA trial.
as §4, §5

[10] = system: cancer patients; assay: Phase I trial N07DOW: treatment duration, SAEs/DLTs, best response; assay type: in vivo, human; settings: n=100
Procedure: as §3
Treatment duration of 19 patients was from 19 up to 72 weeks. These were patients with the following cancers. Head and neck (n=1), non-small cell lung (n=8), anal (n=1), primary unknown (n=3), ovarian (n=1), esophageal (n=1), urothelial cell (n=2), leiomyosarcoma (n=1) and neuroendocrine lung carcinoma (n=1). The docetaxel exposure in these patients was:
as §2
Fiftytwo patients had SD (stable disease) (n=42) or PR (partial response) (n=10) as best treatment response.

[11] = oral, 10 patients with SAEs and DLTs (≥grade 3)
[12] = oral, 25 patients with SD or PR as best treatment response
[13] = po, oral docetaxel + ritonavir bi-daily once per week, 8 patients with treatment duration 19 up to 55 weeks

With `CC(=O)O[C@@]12CO[C@@H]1C[C@H](O)[C@@]1(C)C(=O)[C@H](O)C3=C(C)[C@@H](OC(=O)[C@H](O)[C@@H](NC(=O)OC(C)(C)C)c4ccccc4)C[C@@](O)([C@@H](OC(=O)c4ccccc4)[C@H]21)C3(C)C` [docetaxel] the AUC [1] was ~600 ng·h/mL, the “patients with SAEs and DLTs (possible, probable, definite; ≥grade 3)” value [2] was 10 patients and the “patients with SD or PR as best treatment response” value [2] was “Twentyfive”. For the same compound, the “CMAX after intravenous administration relative to oral ModraDoc006/r 30-20/100-100” value [3] was “ten-fold higher”, the “length of treatment (number of cycles) in patients in a target docetaxel AUC range” value [4] was “trending longer” and the Cmax [5, 11] was 175 ± 117 ng/mL. The AUC(0-t) [5, 11] was 1810 ± 1260 ng·h/mL, the Cmax [5, 12] was 140 ± 83 ng/mL and the AUC(0-t) [5, 12] was 1240 ± 702 ng·h/mL. The Cmax [5, 13] was 143 ± 67 ng/mL, the AUC(0-t) [5, 13] was 1220 ± 620 ng·h/mL and the AUC(0-t) ([6]; oral, 15 patients with SAEs and DLTs (≥grade 3)) was 2340 ± 1450 ng·h/mL. The Cmax ([6]; oral, 15 patients with SAEs and DLTs (≥grade 3), read-out: docetaxel CMAX) was 351 ± 244 ng/mL, the AUC(0-t) ([6]; oral, 52 patients with SD or PR as best treatment response) was 1080 ± 1020 ng·h/mL and the Cmax ([6]; oral, 52 patients with SD or PR as best treatment response, read-out: docetaxel CMAX) was 197 ± 186 ng/mL. The AUC(0-t) ([6]; po, oral docetaxel + ritonavir, single dose once per week, 19 patients with treatment duration 19 up to 72 weeks) was 803 ± 634 ng·h/mL, the Cmax ([6]; po, oral docetaxel + ritonavir, single dose once per week, 19 patients with treatment duration 19 up to 72 weeks, read-out: docetaxel CMAX (peak)) was 148 ± 113 ng/mL and the AUC [7] was 1480 ± 410 ng·h/mL. The “ratio of AUCs for IV docetaxel in mCRPC patients vs other tumors” value ([8]; 1820/3300) was 55%, the “q3w AUC of IV docetaxel in mCRPC patients” value ([8]; IV, every three weeks) was 1820 ng·h/mL and the “docetaxel clearance in mCRPC patient population vs patients with other solid tumors” value [9] was “higher clearance”. The “patients with PR (partial response) as best treatment response” value [10] was 10 patients, the “patients with SAEs and DLTs (possible, probable, definite; ≥grade 3)” value [10] was 15 patients and the “patients with SD (stable disease) as best treatment response” value [10] was 42 patients. For the same compound, the “patients with SD or PR as best treatment response” value [10] was “Fiftytwo”.
